Test results taken from ChEMBL document CHEMBL4507302, “Data for DCP probe TP-020” (2021).

Key:
[1] = molecular target: Citron Rho-interacting kinase (Homo sapiens) (UniProt O14578); conditions: Compound concentration 1000.0 nM
[2] = molecular target: Serine/threonine-protein kinase DCLK1 (Homo sapiens) (UniProt O15075); conditions: Compound concentration 1000.0 nM
[3] = molecular target: STE20/SPS1-related proline-alanine-rich protein kinase (Homo sapiens) (UniProt Q9UEW8); conditions: Compound concentration 1000.0 nM
[4] = tested on: Receptor-type tyrosine-protein kinase FLT3 (Homo sapiens), P36888 [UNDEFINED MUTATION]; conditions: Compound concentration 1000.0 nM
[5] = molecular target: Tyrosine-protein kinase receptor Tie-1 (Homo sapiens) (UniProt P35590); conditions: Compound concentration 1000.0 nM
[6] = molecular target: Mitogen-activated protein kinase kinase kinase 3 (Homo sapiens) (UniProt Q99759); conditions: Compound concentration 1000.0 nM
[7] = molecular target: Histamine H4 receptor (Homo sapiens) (UniProt Q9H3N8); conditions: Compound concentration 10.0 uM
[8] = molecular target: NUAK family SNF1-like kinase 2 (Homo sapiens) (UniProt Q9H093); conditions: Compound concentration 1000.0 nM
[9] = molecular target: Mitogen-activated protein kinase kinase kinase 12 (Homo sapiens) (UniProt Q12852); conditions: Compound concentration 1000.0 nM
[10] = molecular target: Protein kinase C theta type (Homo sapiens) (UniProt Q04759); conditions: Compound concentration 1000.0 nM
[11] = molecular target: Serine/threonine-protein kinase 38 (Homo sapiens) (UniProt Q15208); conditions: Compound concentration 1000.0 nM
[12] = molecular target: Dual specificity mitogen-activated protein kinase kinase 4 (Homo sapiens) (UniProt P45985); conditions: Compound concentration 1000.0 nM
[13] = tested on: Fibroblast growth factor receptor 3 (Homo sapiens), P22607 [G697C]; conditions: Compound concentration 1000.0 nM
[14] = molecular target: Receptor-interacting serine/threonine-protein kinase 1 (Homo sapiens) (UniProt Q13546); conditions: Compound concentration 1000.0 nM
[15] = molecular target: AP2-associated protein kinase 1 (Homo sapiens) (UniProt Q2M2I8); conditions: Compound concentration 1000.0 nM
[16] = molecular target: Ribosomal protein S6 kinase alpha-4 (Homo sapiens) (UniProt O75676); conditions: Compound concentration 1000.0 nM
[17] = molecular target: Calcium/calmodulin-dependent protein kinase type II subunit gamma (Homo sapiens) (UniProt Q13555); conditions: Compound concentration 1000.0 nM
[18] = molecular target: GABA-A receptor; anion channel (Rattus norvegicus) (UniProt O09028+P15431+P18506+P18508+P19969+P20236+P23574+P23576+P28471+P28473+P30191+P62813+P63079+P63138+Q91ZM7+Q9ES14); conditions: Compound concentration 10.0 uM
[19] = molecular target: Casein kinase I isoform gamma-3 (Homo sapiens) (UniProt Q9Y6M4); conditions: Compound concentration 1000.0 nM
[20] = molecular target: Serine/threonine-protein kinase WNK3 (Homo sapiens) (UniProt Q9BYP7); conditions: Compound concentration 1000.0 nM
[21] = molecular target: Activated CDC42 kinase 1 (Homo sapiens) (UniProt Q07912); conditions: Compound concentration 1000.0 nM
[22] = tested on: Tyrosine-protein kinase ABL1 (Homo sapiens), P00519 [M351T]; conditions: Compound concentration 1000.0 nM
[23] = molecular target: Mitogen-activated protein kinase kinase kinase 14 (Homo sapiens) (UniProt Q99558); conditions: Compound concentration 1000.0 nM
[24] = molecular target: Serine/threonine-protein kinase 35 (Homo sapiens) (UniProt Q8TDR2); conditions: Compound concentration 1000.0 nM
[25] = molecular target: 5-hydroxytryptamine receptor 1E (Homo sapiens) (UniProt P28566); conditions: Compound concentration 10.0 uM
[26] = molecular target: Phosphatidylinositol 4,5-bisphosphate 3-kinase catalytic subunit delta isoform (Homo sapiens) (UniProt O00329); conditions: Compound concentration 1000.0 nM
[27] = molecular target: Serine/threonine-protein kinase ULK3 (Homo sapiens) (UniProt Q6PHR2); conditions: Compound concentration 1000.0 nM
[28] = molecular target: Inhibitor of nuclear factor kappa-B kinase subunit epsilon (Homo sapiens) (UniProt Q14164); conditions: Compound concentration 1000.0 nM
[29] = molecular target: Bone morphogenetic protein receptor type-1B (Homo sapiens) (UniProt O00238); conditions: Compound concentration 1000.0 nM
[30] = molecular target: Kappa-type opioid receptor (Homo sapiens) (UniProt P41145); conditions: Compound concentration 10.0 uM
[31] = molecular target: Serine/threonine-protein kinase pim-3 (Homo sapiens) (UniProt Q86V86); conditions: Compound concentration 1000.0 nM
[32] = molecular target: Phosphatidylinositol 3-kinase catalytic subunit type 3 (Homo sapiens) (UniProt Q8NEB9); conditions: Compound concentration 1000.0 nM
[33] = molecular target: Mitogen-activated protein kinase 10 (Homo sapiens) (UniProt P53779); conditions: Compound concentration 1000.0 nM
[34] = tested on: Phosphatidylinositol 4,5-bisphosphate 3-kinase catalytic subunit alpha isoform (Homo sapiens), P42336 [E545K]; conditions: Compound concentration 1000.0 nM
[35] = molecular target: Phosphorylase b kinase regulatory subunit alpha, liver isoform (Homo sapiens) (UniProt P46019); conditions: Compound concentration 1000.0 nM
[36] = molecular target: Serine/threonine-protein kinase TAO3 (Homo sapiens) (UniProt Q9H2K8); conditions: Compound concentration 1000.0 nM
[37] = molecular target: Inhibitor of nuclear factor kappa-B kinase subunit beta (Homo sapiens) (UniProt O14920); conditions: Compound concentration 1000.0 nM
[38] = tested on: Tyrosine-protein kinase ABL1 (Homo sapiens), P00519 [H396P]; conditions: Compound concentration 1000.0 nM
[39] = molecular target: Serine/threonine-protein kinase pim-1 (Homo sapiens) (UniProt P11309); conditions: Compound concentration 1000.0 nM
[40] = molecular target: Rhodopsin kinase GRK7 (Homo sapiens) (UniProt Q8WTQ7); conditions: Compound concentration 1000.0 nM
[41] = molecular target: Dual specificity tyrosine-phosphorylation-regulated kinase 2 (Homo sapiens) (UniProt Q92630); conditions: Compound concentration 1000.0 nM
[42] = molecular target: Dual specificity protein kinase TTK (Homo sapiens) (UniProt P33981); conditions: Compound concentration 1000.0 nM
[43] = molecular target: Serine/threonine-protein kinase 32A (Homo sapiens) (UniProt Q8WU08); conditions: Compound concentration 1000.0 nM

Casein kinase I isoform gamma-3 (Homo sapiens), sequence (Q9Y6M4 whole entry, looked up, canonical isoform): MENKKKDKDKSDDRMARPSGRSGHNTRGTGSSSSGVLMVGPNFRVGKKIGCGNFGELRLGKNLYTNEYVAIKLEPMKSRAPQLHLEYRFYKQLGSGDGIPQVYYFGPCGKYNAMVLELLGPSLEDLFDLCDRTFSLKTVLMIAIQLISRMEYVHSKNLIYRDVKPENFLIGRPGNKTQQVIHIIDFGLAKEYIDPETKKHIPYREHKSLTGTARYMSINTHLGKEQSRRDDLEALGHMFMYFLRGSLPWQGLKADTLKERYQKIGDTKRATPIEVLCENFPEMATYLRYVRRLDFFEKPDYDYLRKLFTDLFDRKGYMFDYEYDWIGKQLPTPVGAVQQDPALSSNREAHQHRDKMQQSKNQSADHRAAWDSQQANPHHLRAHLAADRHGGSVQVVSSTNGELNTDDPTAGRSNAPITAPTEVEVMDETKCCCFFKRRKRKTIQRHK
Receptor-type tyrosine-protein kinase FLT3 (Homo sapiens), P36888 [UNDEFINED MUTATION], sequence (P36888 whole entry, looked up, change not shown): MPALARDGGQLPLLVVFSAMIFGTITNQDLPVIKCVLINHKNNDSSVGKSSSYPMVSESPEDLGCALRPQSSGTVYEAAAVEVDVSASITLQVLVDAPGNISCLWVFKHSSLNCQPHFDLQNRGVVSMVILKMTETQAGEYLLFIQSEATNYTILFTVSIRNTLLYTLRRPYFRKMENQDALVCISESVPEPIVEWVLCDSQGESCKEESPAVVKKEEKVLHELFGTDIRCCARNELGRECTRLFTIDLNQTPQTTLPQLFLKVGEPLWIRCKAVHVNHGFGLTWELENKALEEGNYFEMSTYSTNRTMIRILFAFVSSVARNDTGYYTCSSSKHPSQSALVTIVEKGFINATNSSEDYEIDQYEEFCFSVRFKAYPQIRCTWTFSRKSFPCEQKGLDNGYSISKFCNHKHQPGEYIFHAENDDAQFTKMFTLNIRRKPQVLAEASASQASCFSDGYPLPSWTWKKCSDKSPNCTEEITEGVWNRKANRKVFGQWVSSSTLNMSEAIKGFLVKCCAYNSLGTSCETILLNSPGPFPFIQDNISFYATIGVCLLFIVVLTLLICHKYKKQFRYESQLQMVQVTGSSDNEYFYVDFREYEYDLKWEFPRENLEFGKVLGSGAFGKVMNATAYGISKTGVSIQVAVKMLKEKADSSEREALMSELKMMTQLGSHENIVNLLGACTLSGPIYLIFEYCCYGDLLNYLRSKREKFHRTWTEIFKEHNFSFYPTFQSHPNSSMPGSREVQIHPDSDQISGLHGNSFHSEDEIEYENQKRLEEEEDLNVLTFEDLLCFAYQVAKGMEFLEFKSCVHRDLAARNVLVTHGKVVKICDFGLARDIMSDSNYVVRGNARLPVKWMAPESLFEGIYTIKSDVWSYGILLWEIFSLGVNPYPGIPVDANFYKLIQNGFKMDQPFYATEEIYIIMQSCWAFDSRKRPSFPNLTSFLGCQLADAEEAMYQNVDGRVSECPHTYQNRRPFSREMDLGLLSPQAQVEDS
Dual specificity tyrosine-phosphorylation-regulated kinase 2 (Homo sapiens), sequence (Q92630 whole entry): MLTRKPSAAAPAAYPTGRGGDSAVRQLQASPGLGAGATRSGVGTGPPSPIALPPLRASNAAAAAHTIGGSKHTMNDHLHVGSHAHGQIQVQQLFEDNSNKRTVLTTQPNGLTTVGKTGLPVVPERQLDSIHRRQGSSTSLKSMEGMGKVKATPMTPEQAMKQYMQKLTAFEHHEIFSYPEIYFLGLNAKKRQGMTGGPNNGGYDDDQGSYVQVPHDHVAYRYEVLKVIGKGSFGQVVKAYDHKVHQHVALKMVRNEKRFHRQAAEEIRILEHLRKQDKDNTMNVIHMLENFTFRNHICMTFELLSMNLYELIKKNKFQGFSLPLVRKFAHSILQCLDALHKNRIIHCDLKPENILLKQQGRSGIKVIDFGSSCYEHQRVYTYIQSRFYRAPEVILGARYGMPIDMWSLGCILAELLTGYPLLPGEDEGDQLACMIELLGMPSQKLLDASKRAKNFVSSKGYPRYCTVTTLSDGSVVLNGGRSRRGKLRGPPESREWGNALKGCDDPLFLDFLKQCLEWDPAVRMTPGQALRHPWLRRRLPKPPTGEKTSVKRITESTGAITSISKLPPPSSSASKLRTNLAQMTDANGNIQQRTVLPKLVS
Calcium/calmodulin-dependent protein kinase type II subunit gamma (Homo sapiens), sequence (Q13555 whole entry): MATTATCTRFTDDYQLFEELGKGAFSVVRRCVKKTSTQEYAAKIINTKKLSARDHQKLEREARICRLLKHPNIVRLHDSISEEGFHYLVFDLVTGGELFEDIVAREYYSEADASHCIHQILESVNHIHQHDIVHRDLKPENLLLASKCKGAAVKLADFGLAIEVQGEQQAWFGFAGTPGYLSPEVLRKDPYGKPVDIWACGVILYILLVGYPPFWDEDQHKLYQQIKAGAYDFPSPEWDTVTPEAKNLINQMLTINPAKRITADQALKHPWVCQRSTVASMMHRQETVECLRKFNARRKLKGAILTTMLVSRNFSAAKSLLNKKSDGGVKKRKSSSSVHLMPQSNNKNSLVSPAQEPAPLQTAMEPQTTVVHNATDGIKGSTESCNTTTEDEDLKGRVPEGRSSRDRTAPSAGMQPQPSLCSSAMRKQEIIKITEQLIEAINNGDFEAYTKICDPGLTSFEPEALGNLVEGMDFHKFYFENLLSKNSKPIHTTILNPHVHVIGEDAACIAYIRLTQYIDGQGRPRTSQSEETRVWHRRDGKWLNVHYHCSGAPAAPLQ
Serine/threonine-protein kinase 38 (Homo sapiens), sequence (Q15208 2-465 limits assumed): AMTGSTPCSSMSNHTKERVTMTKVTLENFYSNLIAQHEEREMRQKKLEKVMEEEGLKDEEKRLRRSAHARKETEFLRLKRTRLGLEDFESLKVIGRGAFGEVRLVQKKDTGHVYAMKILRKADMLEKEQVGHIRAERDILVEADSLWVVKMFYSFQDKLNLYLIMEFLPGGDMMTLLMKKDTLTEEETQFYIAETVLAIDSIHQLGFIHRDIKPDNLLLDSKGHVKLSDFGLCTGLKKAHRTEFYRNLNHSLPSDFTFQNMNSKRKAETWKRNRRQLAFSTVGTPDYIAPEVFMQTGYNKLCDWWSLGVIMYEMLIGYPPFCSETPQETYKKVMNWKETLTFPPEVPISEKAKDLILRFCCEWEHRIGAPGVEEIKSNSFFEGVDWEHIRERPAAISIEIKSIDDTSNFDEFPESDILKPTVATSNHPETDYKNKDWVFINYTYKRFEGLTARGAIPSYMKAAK
Mitogen-activated protein kinase kinase kinase 3 (Homo sapiens), sequence (Q99759 whole entry): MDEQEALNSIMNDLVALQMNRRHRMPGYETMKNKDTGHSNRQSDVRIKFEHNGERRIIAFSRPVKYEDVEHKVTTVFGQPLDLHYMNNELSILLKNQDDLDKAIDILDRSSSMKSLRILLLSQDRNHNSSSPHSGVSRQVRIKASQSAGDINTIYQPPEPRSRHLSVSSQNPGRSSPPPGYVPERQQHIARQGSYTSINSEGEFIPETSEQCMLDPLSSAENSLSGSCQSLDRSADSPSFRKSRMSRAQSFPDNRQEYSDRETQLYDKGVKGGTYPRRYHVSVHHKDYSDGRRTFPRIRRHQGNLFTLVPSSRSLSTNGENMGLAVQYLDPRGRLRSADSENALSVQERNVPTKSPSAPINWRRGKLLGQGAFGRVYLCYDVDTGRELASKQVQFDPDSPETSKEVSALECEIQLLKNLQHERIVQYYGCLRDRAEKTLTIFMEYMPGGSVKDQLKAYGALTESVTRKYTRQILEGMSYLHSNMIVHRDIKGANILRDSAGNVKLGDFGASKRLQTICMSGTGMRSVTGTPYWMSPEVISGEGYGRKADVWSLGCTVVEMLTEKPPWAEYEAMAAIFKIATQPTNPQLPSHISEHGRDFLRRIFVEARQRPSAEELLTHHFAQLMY
Mitogen-activated protein kinase kinase kinase 12 (Homo sapiens), sequence (Q12852 whole entry): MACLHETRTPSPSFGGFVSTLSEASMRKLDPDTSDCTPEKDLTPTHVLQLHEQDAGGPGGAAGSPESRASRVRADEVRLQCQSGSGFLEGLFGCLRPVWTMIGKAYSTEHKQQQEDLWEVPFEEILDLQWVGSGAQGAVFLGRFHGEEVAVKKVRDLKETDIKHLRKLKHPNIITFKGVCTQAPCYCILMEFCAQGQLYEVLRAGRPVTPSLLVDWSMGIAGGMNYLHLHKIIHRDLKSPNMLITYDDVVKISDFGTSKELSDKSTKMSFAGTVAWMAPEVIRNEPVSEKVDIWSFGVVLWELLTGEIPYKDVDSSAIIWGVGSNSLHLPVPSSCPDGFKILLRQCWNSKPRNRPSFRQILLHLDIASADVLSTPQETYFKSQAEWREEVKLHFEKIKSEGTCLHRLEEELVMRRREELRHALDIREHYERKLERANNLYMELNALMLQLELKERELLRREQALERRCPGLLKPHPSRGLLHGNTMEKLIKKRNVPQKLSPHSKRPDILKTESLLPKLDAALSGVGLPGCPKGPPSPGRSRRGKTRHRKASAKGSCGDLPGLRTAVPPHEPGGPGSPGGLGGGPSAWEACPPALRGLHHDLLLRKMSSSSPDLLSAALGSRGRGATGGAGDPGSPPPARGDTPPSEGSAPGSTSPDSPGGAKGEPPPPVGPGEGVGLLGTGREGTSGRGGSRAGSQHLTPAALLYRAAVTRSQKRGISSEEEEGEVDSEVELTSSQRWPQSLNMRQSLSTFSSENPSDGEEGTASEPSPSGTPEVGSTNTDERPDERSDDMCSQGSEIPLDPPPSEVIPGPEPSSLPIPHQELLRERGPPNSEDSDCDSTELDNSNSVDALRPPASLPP
Mitogen-activated protein kinase 10 (Homo sapiens), sequence (P53779 whole entry, canonical isoform): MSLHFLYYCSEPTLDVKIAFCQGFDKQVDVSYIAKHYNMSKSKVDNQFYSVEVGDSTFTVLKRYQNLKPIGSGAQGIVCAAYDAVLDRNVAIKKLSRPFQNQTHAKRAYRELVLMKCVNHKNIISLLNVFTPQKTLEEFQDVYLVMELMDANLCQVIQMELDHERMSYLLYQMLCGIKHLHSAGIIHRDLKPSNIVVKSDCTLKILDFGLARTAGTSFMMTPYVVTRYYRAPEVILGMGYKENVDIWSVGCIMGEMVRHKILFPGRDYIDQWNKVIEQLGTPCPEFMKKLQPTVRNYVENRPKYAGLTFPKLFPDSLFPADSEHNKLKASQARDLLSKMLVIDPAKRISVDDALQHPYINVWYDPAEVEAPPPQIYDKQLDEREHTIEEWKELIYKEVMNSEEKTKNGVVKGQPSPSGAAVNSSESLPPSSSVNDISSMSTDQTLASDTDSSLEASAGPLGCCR

Nc1cnc(N2CCc3cc(S(=O)(=O)Nc4c(F)cc(Cl)cc4F)cc(N4CCCC4=O)c32)nc1
inactive: residual activity [1] 91% | residual activity [2] 100% | residual activity [3] 100% | residual activity [4] 96% | residual activity [5] 100% | residual activity [6] 97% | inhibition [7] -0.37% | residual activity [8] 100% | residual activity [9] 100% | residual activity [10] 89% | residual activity [11] 99% | residual activity [12] 100% | residual activity [13] 89% | residual activity [14] 92% | residual activity [15] 100% | residual activity [16] 96% | residual activity [17] 100% | inhibition [18] 20.5% | residual activity [19] 78% | residual activity [20] 100% | residual activity [21] 91% | residual activity [22] 100% | residual activity [23] 75% | residual activity [24] 100% | inhibition [25] -4.55% | residual activity [26] 88% | residual activity [27] 100% | residual activity [28] 95% | residual activity [29] 100% | inhibition [30] 14.9% | residual activity [31] 98% | residual activity [32] 100% | residual activity [33] 94% | residual activity [34] 100% | residual activity [35] 100% | residual activity [36] 70% | residual activity [37] 96% | residual activity [38] 94% | residual activity [39] 88% | residual activity [40] 99% | residual activity [41] 89% | residual activity [42] 90% | residual activity [43] 80%

Cn1nc(C(F)(F)F)cc1-c1cnc(N2CCc3cc(S(=O)(=O)Nc4c(F)cc(Cl)cc4F)cc(N4CCCC4=O)c32)nc1 [TP-020]
active: residual activity [4] 32%
inactive: residual activity [1] 100% | residual activity [2] 93% | residual activity [3] 91% | residual activity [5] 100% | residual activity [6] 89% | inhibition [7] 10.9% | residual activity [8] 89% | residual activity [9] 72% | residual activity [10] 100% | residual activity [11] 97% | residual activity [12] 88% | residual activity [13] 100% | residual activity [14] 100% | residual activity [15] 100% | residual activity [16] 85% | residual activity [17] 95% | inhibition [18] 7.89% | residual activity [19] 81% | residual activity [20] 97% | residual activity [21] 100% | residual activity [22] 92% | residual activity [23] 79% | residual activity [24] 100% | inhibition [25] 14.8% | residual activity [26] 84% | residual activity [27] 100% | residual activity [28] 94% | residual activity [29] 83% | inhibition [30] 14.6% | residual activity [31] 100% | residual activity [32] 78% | residual activity [33] 100% | residual activity [34] 82% | residual activity [35] 96% | residual activity [36] 93% | residual activity [37] 81% | residual activity [38] 81% | residual activity [39] 97% | residual activity [40] 85% | residual activity [41] 87% | residual activity [42] 97% | residual activity [43] 78%
